Data taken from patent US7417062B2, “Substituted arylamides” (ChemoCentryx, Inc., priority 2004, dated 2008).

biological target: T1, CCXCKR2 receptor (Homo sapiens, UniProt P25106); test: Displacement of 125I-labeled SDF-1 from the CCXCKR2 receptor (radioligand binding, determination of IC50 values); conditions: MCF-7 and/or MDA-MB-435S cells expressing CCXCKR2; 125I SDF-1; 3 hr at 4° C.; read-out: Activity (ability to displace 125I SDF-1 from CCXCKR2)
T1 construct: host or cells: MCF-7 (endogenous) and/or MDA-MB-435S transfected with hRDC1 in pcDNA3.1(+)
T1 sequence (P25106 whole entry): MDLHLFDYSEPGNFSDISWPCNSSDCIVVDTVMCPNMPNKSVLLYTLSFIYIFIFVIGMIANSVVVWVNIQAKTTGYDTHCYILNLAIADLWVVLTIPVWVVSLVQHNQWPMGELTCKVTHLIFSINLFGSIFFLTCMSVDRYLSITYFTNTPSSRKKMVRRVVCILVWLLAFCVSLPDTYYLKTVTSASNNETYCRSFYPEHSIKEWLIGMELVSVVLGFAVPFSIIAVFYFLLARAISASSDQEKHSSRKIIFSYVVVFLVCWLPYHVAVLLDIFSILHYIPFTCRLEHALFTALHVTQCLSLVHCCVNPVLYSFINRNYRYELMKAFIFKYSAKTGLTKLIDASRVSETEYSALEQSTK
Description: The ability of the compounds to displace the labeled chemokine from the CCXCKR2 receptor sites at multiple concentrations was then determined with the screening process.
Compounds that were deemed effective modulators were able to displace at least 50% of the SDF-1 from the CCXCKR2 receptor at concentrations at or below 10 micromolar (μM) and more preferably at concentrations at or below 2 micromolar. At present, especially preferred compounds can displace at least 50% of the SDF-1 from the CCXCKR2 receptor at concentrations at or below 500 nM. Exemplary compounds that met these criteria are reproduced in Table B below. All compounds were prepared as described in the Examples above, or by related methods substituting readily available starting materials.
Reagents and Cells. ^125I-labeled SDF-1 was purchased from Perkin-Elmer Life Sciences, Inc. (Boston, Mass.). The MCF-7 (adenocarcinoma; mammary gland) cell line was obtained from the American Type Culture Collection (Manassas, Va.) or and was cultured in DMEM (Mediatech, Herndon, Va.) supplemented with 10% fetal bovine serum (FBS) (HyClone Logan, Utah) and bovine insulin (0.01 mg/mL) (Sigma, St. Louis, Mo.) at 37° C. in a humidified incubator at a 5% CO2/air mixture. CCXCKR2 transfected MDA-MB-435S were produced as described below. MDA-MB-435S human breast cancer line, was purchased from ATCC, and cultured in DMEM/10% FBS medium. The complete coding sequence of the gene encoding CCXCKR2 (a.k.a.CXCR7, hRDC1), was isolated from MCF-7 cells using μMACs mRNA isolation kit (Miltenyi Biotec, Auburn, Calif.). DNA contamination was removed by DNase digestion via RNeasy columns (Qiagen, Inc., Valencia, Calif.) and cDNA was generated using GeneAmp RNA PCR Core Kit (Applied Biosystems, Foster City, Calif.). PCR of cDNA samples was performed using Taq PCR Master Mix kit (Qiagen, Inc.) and hRDC1 primers harboring 5′ and 3′ Not I sites (hRDC1F 5′-[…]-3′ (SEQ ID NO:1), hRDC1R 5′-[…]-3′ (SEQ ID NO:2)) Not I digested PCR product was ligated into Not I digested pcDNA3.1(+)(Invitrogen, Carlsbad, Calif.) and screened for orientation and sequence confirmed. Plasmid DNA was then isolated from overnight bacterial cultures by Maxiprep (Qiagen, Inc.). Plasmid DNA (10 μg) was added to MDA-MB-435s cells and cells were electroporated (0.22 kV, 960 uF) via Gene Pulser (Biorad laboratories, Hercules, Calif.). 48 hr post-electroporation, cells were transferred to selection medium (1000 ug/ml G418).
Binding Analysis. Target compounds were tested to determine their ability to bind with CCXCKR2 sites on MCF-7 and/or MDA-MB-435S cells. Efficiency-maximized radioligand binding using filtration protocols as described in Dairaghi D J, et al., HHV8-encoded vMIP-I selectively engages chemokine receptor CCR5. Agonist and antagonist profiles of viral chemokines., J. Biol. Chem. 1999 Jul. 30; 274(31): 21569-74 and Gosling J, et al., Cutting edge: identification of a novel chemokine receptor that binds dendritic cell-and T cell-active chemokines including ELC, SLC, and TECK., J. Immunol. 2000 Mar. 15; 164(6):2851-6 was used.
In these assays, MCF-7 and/or MDA-MB-435S cells were interrogated with the target compounds and the ability of these compounds to displace ^125I radiolabeled SDF-1 was assessed using the protocol described in Dairaghi and Gosling. The target compounds were added to the plate to the indicated concentration and were then incubated with cells followed by the addition of radiolabeled chemokine (^125I SDF-1) for 3 hr at 4° C. in the following binding medium (25 mM HEPES, 140 mM NaCl, 1 mM CaCl2, 5 mM MgCl2 and 0.2% bovine serum albumin, adjusted to pH 7.1). All assays were then incubated for 3 hrs at 4° C. with gentle agitation. Following incubation in all binding assays, reactions were aspirated onto PEI-treated GF/B glass filters (Packard) using a cell harvester (Packard) and washed twice (25 mM HEPES, 500 mM NaCl, 1 mM CaCl2, 5 mM MgCl2, adjusted to pH 7.1). […]

| Structure (SMILES) | IC50 |
| --- | --- |
| COc1ccc(C(=O)N(Cc2nc3ccccc3s2)C[C@@H]2CCCN2CC2CCCCC2)cc1OC [Example 27, N-Benzothiazol-2-yl methyl-(S)—N-(1-cyclohexylmethyl-pyrrolidin-2-ylmethyl)-3,4-dimethoxy-benzamide] | < 500 nM |
| COc1ccc(C(=O)N(Cc2nc3ccccc3s2)C[C@@H]2CCCN2)cc1OC [Example 25, N-Benzothiazol-2-yl methyl-3,4 dimethoxy-N—(S)-pyrrolidin-2-ylmethyl-benzamide] | < 2000 nM |
| COc1ccc(C(=O)N(Cc2nc3ccccc3s2)C[C@@H]2CCCN2CCO)cc1OC [Example 26, N-Benzothiazol-2-yl methyl-(S)—N-[1-(2-hydroxy-ethyl)-pyrrolidin-2-ylmethyl]-3,4-dimethoxy-benzamide] | < 500 nM |
| COc1cc(C(=O)N(CCC2CCCN2C)Cc2ccc3c(c2)OCCO3)cc(OC)c1OC (centres unmarked) [Example 9, N-(2,3-Dihydro-benzo[1,4]dioxin-6-ylmethyl)-3,4,5-trimethoxy-N-[2-(1-methyl-pyrrolidin-2-yl)-ethyl]-benzamide] | < 500 nM |
| COc1ccc(C(=O)N(Cc2ccc3ccccc3c2)C[C@@H]2CCCN2CC2CC=CCC2)cc1OC (some centres unmarked) [Example 1a] | < 500 nM |
| COc1ccc(C(=O)N(C[C@@H]2CCCN2CCO)c2cccc(-c3ccccc3)c2)cc1OC [Example 22, N-Biphenyl-3-yl-(S)—N[1-(2-hydroxy-ethyl)-pyrrolidin-2ylmethyl]-3,4-dimethoxy-benzamide] | < 500 nM |
| COc1ccc(C(=O)N(Cc2ccc3ccccc3c2)C[C@@H]2CCCN2CC2CCCCC2)cc1OC [Example 1, N—(S)-(1-Cyclohexylmethyl-pyrrolidine-2-ylmethyl)-3,4-dimethoxy-N-naphthalen-2-ylmethyl-benzamide] | < 500 nM |
| COc1ccc(C(=O)N(Cc2nc3ccccc3s2)C[C@@H]2CCCN2C(C)C)cc1OC [Example 28, N-Benzothiazol-2-yl methyl-(S)—N-(1-isopropyl-pyrrolidin-2-ylmethyl)-3,4-dimethoxy-benzamide] | < 500 nM |
| COc1cc(C(=O)N(CCC2CCCN2C)Cc2ccc3ccccc3n2)cc(OC)c1OC (centres unmarked) [Example 11] | < 500 nM |
| COc1cc(C(=O)N(CCCN2CCCCC2C)c2cccc(-c3ccccc3)c2)cc(OC)c1OC (centres unmarked) [Example 17, N-Biphenyl-3-yl-3,4,5-trimethoxy-N-[3-(2-methyl-piperidin-1-yl)-propyl]-benzamide] | < 500 nM |
| COc1cc(C(=O)N(Cc2cc3cc(Cl)ccc3o2)C[C@@H]2CCCN2)ccc1OC(F)F | < 500 nM |
| COc1ccc(C(=O)N(C[C@@H]2CCCN2)c2cccc(-c3ccccc3)c2)cc1OC [Example 21] | < 2000 nM |
| COc1cc(C(=O)N(CCC2CCCN2C)CC2=C(Cl)c3cc(F)ccc3OC2)cc(OC)c1OC (centres unmarked) | < 500 nM |

Now from value to compound:

| IC50 | Structure (SMILES) |
| --- | --- |
| < 10000 nM | COc1ccc(C(=O)N(C[C@@H]2CCCN2CC2CCCCC2)c2cccc(-n3cccn3)c2)cc1OC [Example 75, N-((S)-1-Cyclohexylmethyl-pyrrolidin-2-ylmethyl)-3,4-dimethoxy-N-(3-pyrazol-1-yl-phenyl)-benzamide] |
| < 500 nM | COc1cc(C(=O)N(Cc2ccc3ccccc3n2)CC2CN(C)C2)cc2c1OC(C)(C)O2 [Example 49, 7-Methoxy-2,2-dimethyl-benzo[1,3]dioxole-5-carboxylic acid (1-methyl-azetidin-3-ylmethyl)-quinolin-2-ylmethyl-amide] |
| < 500 nM | COc1cc(C(=O)N(Cc2cc3ccccc3o2)C[C@@H]2CCCN2C2CCC2)cc2c1OC(C)(C)O2 [Example 58, 7-Methoxy-2,2-dimethyl-benzo[1,3]dioxole-5-carboxylic acid benzofuran-2-ylmethyl-((S)-1-cyclobutyl-pyrrolidin-2-ylmethyl)-amide] |
| < 500 nM | COc1cc(C(=O)N(C[C@@H]2C[C@@H]3CCCC[C@@H]3N2)C(C)c2ccc3ccccc3n2)cc2c1OC(C)(C)O2 (stereo partly drawn) [Example 71, 7-Methoxy-2,2-dimethyl-benzo[1,3]dioxole-5-carboxylic acid [(2S,3aS,7aS)-1-(octahydro-indol-2-yl)methyl]-(1-quinolin-2-yl-ethyl)-amide] |
| < 500 nM | COc1cc(C(=O)N(Cc2nc(-c3ccccc3)cs2)C[C@@H]2CCCN2C2CCC2)cc2c1OC(C)(C)O2 [Example 50, 7-Methoxy-2,2-dimethyl-benzo[1,3]dioxole-5-carboxylic acid ((S)-1-cyclobutyl-pyrrolidin-2-ylmethyl)-(4-phenyl-thiazol-2-ylmethyl)-amide] |
| < 500 nM | COc1cc(C(=O)N(Cc2ccc3ccccc3n2)CC2CNC2)cc2c1OC(C)(C)O2 [Example 48, 7-Methoxy-2,2-dimethyl-benzo[1,3]dioxole-5-carboxylic acid azetidin-3-ylmethyl-quinolin-2-ylmethyl-amide] |
| < 500 nM | COc1cc(C(=O)N(C[C@@H]2CCCN2)c2cccc(-c3ccccc3)c2)ccc1OC(F)F [Example 31, N-Biphenyl-3-yl-4-difluoromethoxy-3-methoxy-(S)—N-pyrrolidin-2-ylmethyl-benzamide] |
| < 500 nM | COc1cc(C(=O)N(Cc2cnc3ccccc3n2)C[C@@H]2C[C@@H]3CCCC[C@@H]3N2)cc2c1OC(C)(C)O2 [Example 68, 7-Methoxy-2,2-dimethyl-benzo[1,3]dioxole-5-carboxylic acid [(2S,3aS,7aS)-1-(octahydro-indol-2-yl)methyl]-quinoxalin-2-ylmethyl-amide] |
| < 10000 nM | COc1ccc(C(=O)N(C[C@@H]2CCCN2CC2CCCCC2)c2cccc(-n3ccnn3)c2)cc1OC [Example 76, N-((S)-1-Cyclohexylmethyl-pyrrolidin-2-ylmethyl)-3,4-dimethoxy-N-(3-[1,2,3]triazol-1-yl-phenyl)-benzamide] |
| < 10000 nM | COc1ccc(C(=O)N(C[C@@H]2CCCN2CC2CC2)c2cccc(-c3ccc(F)c(Cl)c3)c2)cc1OC [Example 38, N-(3′-Chloro-4′-fluoro-biphenyl-3-yl)-(S)—N-(1-cyclopropylmethyl-pyrrolidin-2-ylmethyl)-3,4-dimethoxy-benzamide] |
| < 500 nM | COc1cc(C(=O)N(Cc2ccc3ccccc3c2)C[C@@H]2CCCN2C2CCC2)cc2c1OC(C)(C)O2 [Example 59, 7-Methoxy-2,2-dimethyl-benzo[1,3]dioxole-5-carboxylic acid ((S)-1-cyclobutyl-pyrrolidin-2-ylmethyl)-naphthalen-2-ylmethyl-amide] |
| < 500 nM | COc1cc(C(=O)N(C[C@@H]2C[C@@H]3CCCC[C@@H]3N2)C(C)c2cc3ccccc3cn2)cc2c1OC(C)(C)O2 (stereo partly drawn) [Example 66, 7-Methoxy-2,2-dimethyl-benzo[1,3]dioxole-5-carboxylic acid (1-isoquinolin-3-yl-ethyl)-[(2S,3aS,7aS)-1-(octahydro-indol-2-yl)methyl]-amide] |
| < 500 nM | COc1cc(C(=O)N(Cc2ccc3ccccc3n2)C[C@@H]2CCCN2CC2CNC2)cc2c1OC(C)(C)O2 [Example 44, 7-Methoxy-2,2-dimethyl-benzo[1,3]dioxole-5-carboxylic acid ((S)-1-azetidin-3-ylmethyl-pyrrolidin-2-ylmethyl)-quinolin-2-ylmethyl-amide] |
